Where two headings read alike, the source gives them in different places.
Assays:
[1] = molecular target: human norepinephrine transporter (NET) (Homo sapiens (Human), UniProt P23975); assay: Binding assay to human norepinephrine transporter (NET) ([3H]-Nisoxetin); conditions: Table 2, dual compounds, human NET enriched membranes, read-out: Ki (nM) NET Hum
Protocol: Binding Assay to Human Norepinephrine Transporter (NET).
Human norepinephrine transporter (NET) enriched membranes (5 μg) were incubated with 5 nM of radiolabeled [3H]-Nisoxetin in assay buffer containing 50 mM Tris-HCl, 120 mM NaCl, 5 mM KCl, pH 7.4.
(§1) NSB (non specific binding) was measured by adding desipramine 10 μM. The binding of the test compound was measured at five different concentrations. After 60 min incubation at 4° C., binding reaction was terminated by filtering through Multiscreen GF/C (Millipore) presoaked in 0.5% polyethyleneimine in Vacuum Manifold Station, followed by 3 washes with ice-cold filtration buffer containing 50 mM Tris-HCl, 0.9% NaCl, pH 7.4.
Filter plates were dried at 60° C. for 1 h and 30 μl of scintillation cocktail were added to each well before radioactivity reading.
(§2) Readings were performed in a Trilux 1450 Microbeta radioactive counter (Perkin Elmer).

[2] = molecular target: human α2δ-1 subunit of Cav2.2 calcium channel (Homo sapiens (Human), UniProt P54289); assay: Binding assay to human α2δ-1 subunit of Cav2.2 calcium channel ([3H]-Gabapentin); conditions: read-out: Ki (nM) alpha2delta Hum
Sequence of human α2δ-1 subunit of Cav2.2 calcium channel (P54289 25-1103): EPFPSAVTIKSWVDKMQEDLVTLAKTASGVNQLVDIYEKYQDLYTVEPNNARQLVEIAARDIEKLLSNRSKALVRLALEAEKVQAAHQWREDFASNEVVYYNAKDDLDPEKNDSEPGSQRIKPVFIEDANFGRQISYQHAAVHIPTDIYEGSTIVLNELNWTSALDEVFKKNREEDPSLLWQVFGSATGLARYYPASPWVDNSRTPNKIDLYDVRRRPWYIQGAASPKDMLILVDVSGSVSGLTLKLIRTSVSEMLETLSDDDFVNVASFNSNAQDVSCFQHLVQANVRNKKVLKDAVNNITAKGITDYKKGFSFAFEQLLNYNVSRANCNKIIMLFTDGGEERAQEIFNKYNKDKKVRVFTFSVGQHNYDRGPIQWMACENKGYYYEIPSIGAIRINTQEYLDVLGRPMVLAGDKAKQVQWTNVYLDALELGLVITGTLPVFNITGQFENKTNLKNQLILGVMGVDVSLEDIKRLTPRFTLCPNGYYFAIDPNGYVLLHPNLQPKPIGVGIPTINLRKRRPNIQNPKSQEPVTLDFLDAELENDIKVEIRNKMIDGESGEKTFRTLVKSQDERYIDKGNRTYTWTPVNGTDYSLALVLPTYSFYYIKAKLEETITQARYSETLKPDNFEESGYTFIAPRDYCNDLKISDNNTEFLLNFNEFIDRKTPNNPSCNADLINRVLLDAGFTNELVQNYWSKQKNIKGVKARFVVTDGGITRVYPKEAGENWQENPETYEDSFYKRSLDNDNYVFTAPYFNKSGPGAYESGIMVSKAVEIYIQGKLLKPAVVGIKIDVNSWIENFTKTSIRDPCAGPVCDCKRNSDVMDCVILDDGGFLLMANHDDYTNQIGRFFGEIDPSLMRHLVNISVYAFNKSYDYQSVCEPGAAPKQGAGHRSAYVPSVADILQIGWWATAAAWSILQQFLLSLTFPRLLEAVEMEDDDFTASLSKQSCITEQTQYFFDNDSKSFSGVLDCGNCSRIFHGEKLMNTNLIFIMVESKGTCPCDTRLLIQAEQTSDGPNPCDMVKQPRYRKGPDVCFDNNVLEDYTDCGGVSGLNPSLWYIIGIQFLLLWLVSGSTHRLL
Protocol: Binding Assay to Human α2δ-1 Subunit of Cav2.2 Calcium Channel.
Human α2δ-1 enriched membranes (2.5 μg) were incubated with 15 nM of radiolabeled [3H]-Gabapentin in assay buffer containing Hepes-KOH 10 mM, pH 7.4.
as §1, with “adding” for “adding desipramine”, “μM pregabalin.” for “μM.”, “27°” for “4°”, “Tris-HCl,” for “Tris-HCl, 0.9% NaCl,”, “7.4. Filter plates were dried at 60° C. for 1 h and 30 μl of scintillation cocktail were added to each well before radioactivity reading.” for “7.4.”
as §2

[3] = Table 1, human α2δ-1 enriched membranes
[4] = Table 2, dual compounds, human α2δ-1 enriched membranes

Sequence of human norepinephrine transporter (NET) (P23975 whole entry): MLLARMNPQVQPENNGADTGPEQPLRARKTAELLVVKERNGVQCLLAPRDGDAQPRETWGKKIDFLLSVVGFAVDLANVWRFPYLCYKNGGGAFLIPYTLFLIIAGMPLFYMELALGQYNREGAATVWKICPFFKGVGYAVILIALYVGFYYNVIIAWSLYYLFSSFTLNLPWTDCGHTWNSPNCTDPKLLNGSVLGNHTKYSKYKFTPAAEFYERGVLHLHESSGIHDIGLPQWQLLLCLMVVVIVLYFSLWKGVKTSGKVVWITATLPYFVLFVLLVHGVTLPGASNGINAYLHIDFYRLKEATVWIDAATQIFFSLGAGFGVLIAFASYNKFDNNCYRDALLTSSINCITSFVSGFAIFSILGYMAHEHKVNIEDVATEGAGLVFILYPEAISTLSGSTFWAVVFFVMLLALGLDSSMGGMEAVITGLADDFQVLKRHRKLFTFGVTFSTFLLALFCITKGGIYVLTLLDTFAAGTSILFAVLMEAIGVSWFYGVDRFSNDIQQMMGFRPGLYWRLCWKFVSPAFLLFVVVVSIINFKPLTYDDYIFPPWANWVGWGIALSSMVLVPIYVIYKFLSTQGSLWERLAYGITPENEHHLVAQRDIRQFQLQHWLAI

Ki [1] [nM]	Ki [2, 3] [nM]	Ki [2, 4] [nM]	SMILES
100 to 500	100 to 500	100 to 500	CNCC[C@@H](Oc1cccc2ccncc12)c1ccsc1 [Example 61, (R)-3-(isoquinolin-8-yloxy)-N-methyl-3-(thiophen-3-yl)propan-1-amine]
500 to 1000	< 100	< 100	CNCC[C@@H](Oc1cccc2ccnc(C)c12)c1cccs1 [Example 62, (R)-N-methyl-3-((1-methylisoquinolin-8-yl)oxy)-3-(thiophen-2-yl)propan-1-amine]
100 to 500	≥ 3000	≥ 3000	CNCC[C@H](Oc1cccc2c(C)nccc12)c1cccs1 [Example 65, (S)-N-methyl-3-((1-methylisoquinolin-5-yl)oxy)-3-(thiophen-2-yl)propan-1-amine]
100 to 500	100 to 500	100 to 500	CNCC[C@H](Oc1cccc2ncccc12)c1ccsc1 [Example 67, (S)-N-methyl-3-(quinolin-5-yloxy)-3-(thiophen-3-yl)propan-1-amine]
< 100	≥ 3000	≥ 3000	CNCC[C@H](Oc1cccc2cnccc12)c1ccsc1 [Example 68, (S)-3-(isoquinolin-5-yloxy)-N-methyl-3-(thiophen-3-yl)propan-1-amine]
500 to 1000	≥ 3000	≥ 3000	CNCC[C@H](Oc1cccc2ccncc12)c1ccsc1 [Example 69, (S)-3-(isoquinolin-8-yloxy)-N-methyl-3-(thiophen-3-yl)propan-1-amine]
100 to 500	500 to 3000	500 to 3000	CNCCC(Oc1cccc2cnccc12)c1nccs1 (stereo not drawn) [Example 71, 3-(isoquinolin-5-yloxy)-N-methyl-3-(thiazol-2-yl)propan-1-amine]
500 to 1000	100 to 500	100 to 500	CNCCC(Oc1cccc2ncccc12)c1nccs1 (stereo not drawn) [Example 72, N-methyl-3-(quinolin-5-yloxy)-3-(thiazol-2-yl)propan-1-amine]
100 to 500	≥ 3000	≥ 3000	CNCCC(Oc1ccc2ccncc2c1)c1cccs1 (stereo not drawn) [Example 74, 3-(isoquinolin-7-yloxy)-N-methyl-3-(thiophen-2-yl)propan-1-amine]
100 to 500	500 to 3000	500 to 3000	CNCC[C@H](Oc1cccc2ncccc12)c1ccc(Cl)s1 [Example 78, (S)-3-(5-Chlorothiophen-2-yl)-N-methyl-3-(quinolin-5-yloxy)propan-1-amine]
500 to 1000	< 100	< 100	CNCC[C@@H](Oc1cccc2ncccc12)c1ccc(Cl)s1 [Example 79, (R)-3-(5-chlorothiophen-2-yl)-N-methyl-3-(quinolin-5-yloxy)propan-1-amine]
100 to 500	100 to 500	100 to 500	CNCC[C@@H](Oc1cccc2ccncc12)c1ccc(F)s1 [Example 81, (R)-3-(5-fluorothiophen-2-yl)-3-(isoquinolin-8-yloxy)-N-methylpropan-1-amine]
< 100	≥ 3000	≥ 3000	CNCC[C@H](Oc1cccc2cnccc12)c1sccc1F [Example 82, (S)-3-(3-Fluorothiophen-2-yl)-3-(isoquinolin-5-yloxy)-N-methylpropan-1-amine]
100 to 500	100 to 500	100 to 500	CNCC[C@@H](Oc1cccc2cnccc12)c1sccc1F [Example 83, (R)-3-(3-fluorothiophen-2-yl)-3-(isoquinolin-5-yloxy)-N-methylpropan-1-amine]
100 to 500	500 to 3000	500 to 3000	CNCC[C@H](Oc1cccc2ncccc12)c1sccc1F [Example 84, (S)-3-(3-Fluorothiophen-2-yl)-N-methyl-3-(quinolin-5-yloxy)propan-1-amine]
100 to 500	500 to 3000	500 to 3000	CNCC[C@@H](Oc1cccc2ncccc12)c1sccc1F [Example 85, (R)-3-(3-fluorothiophen-2-yl)-N-methyl-3-(quinolin-5-yloxy)propan-1-amine]
100 to 500	≥ 3000	≥ 3000	CNCC[C@H](Oc1cccc2ccncc12)c1sccc1F [Example 86, (S)-3-(3-Fluorothiophen-2-yl)-3-(isoquinolin-8-yloxy)-N-methylpropan-1-amine]
100 to 500	100 to 500	100 to 500	CNCC[C@@H](Oc1cccc2ccncc12)c1sccc1F [Example 87, (R)-3-(3-fluorothiophen-2-yl)-3-(isoquinolin-8-yloxy)-N-methylpropan-1-amine]
100 to 500	≥ 3000	≥ 3000	CNCC[C@@H](Oc1cnc2ccccc2c1)c1cccs1 [Example 94, (R)-N-methyl-3-(quinolin-3-yloxy)-3-(thiophen-2-yl)propan-1-amine]

Reference: patent US10941138B2, “Quinoline and isoquinoline derivatives for treating pain and pain related conditions” (ESTEVE PHARMACEUTICALS, S.A., priority 2016, dated 2021)
